Experimental data from patent US8809352B2, “Sulfonamides as inhibitors of Bcl-2 family proteins for the treatments of cancer” (Novartis AG, priority 2009, dated 2014).

Each compound was assayed against BCL2 (Homo sapiens, UniProt P10415) (assay: Biacore SPR solution inhibition assay of BCL-2 binding to peptide derivatized sensor surfaces). Conditions: SPR competition; 56 nM BCL2 pre-equilibrated with compound one hour; biotinylated BAK, BAD and NOXA peptide surfaces; 25° C.
How it was run: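 Solution-competition SPR at 25 °C in HEPES pH 7.4 buffer with 1.25 mM DTT and 3% DMSO: compounds (6-point threefold series, 16 μM to 0.004 nM) pre-equilibrated 1 h with 56 nM BCL2, then injected over captured biotinylated BAK, BAD and NOXA peptide surfaces. Binding levels relative to BCL2-only controls gave % inhibition.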

Chain of BCL2 (P10415 whole entry): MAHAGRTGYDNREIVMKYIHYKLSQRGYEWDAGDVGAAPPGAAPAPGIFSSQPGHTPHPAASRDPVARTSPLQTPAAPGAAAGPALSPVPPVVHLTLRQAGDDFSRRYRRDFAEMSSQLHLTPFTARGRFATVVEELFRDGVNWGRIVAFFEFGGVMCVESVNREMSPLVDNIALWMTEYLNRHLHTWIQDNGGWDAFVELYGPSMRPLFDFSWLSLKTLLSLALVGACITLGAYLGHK

IC50 [nM] | Compound
49 | CN(C)CC[C@H](CSc1ccccc1)Nc1ccc(S(=O)(=O)Nc2ncnc3c2CCN(C2CCN(Cc4ccccc4-c4cccc(Cl)c4)CC2)C3)cc1S(=O)(=O)C(F)(F)F [Example 97, N-{7-[1-(3′-Chloro-biphenyl-2-ylmethyl)-piperidin-4-yl]-5,6,7,8-tetrahydro-pyrido[3,4-d]pyrimidin-4-yl}-4-((R)-3-dimethylamino-1-phenylsulfanylmethyl-propylamino)-3-trifluoromethanesulfonyl-benzenesulfonamide]
36 | CN(C)CC[C@H](CSc1ccccc1)Nc1ccc(S(=O)(=O)Nc2ncnc3c2CCN(C2CCN(Cc4ccccc4-c4ccccc4Cl)CC2)C3)cc1S(=O)(=O)C(F)(F)F [Example 98]
37 | CN(C)CC[C@H](CSc1ccccc1)Nc1ccc(S(=O)(=O)Nc2ncnc3c2CCN(C2CCN(Cc4ccccc4-c4ccc(C(F)(F)F)cc4)CC2)C3)cc1S(=O)(=O)C(F)(F)F [Example 99, (R)-4-(4-(dimethylamino)-1-(phenylthio)butan-2-ylamino)-N-(7-(1-((4′-(trifluoromethyl)biphenyl-2-yl)-methyl)piperidin-4-yl)-5,6,7,8-tetrahydropyrido[3,4-d]pyrimidin-4-yl)-3-(trifluoromethylsulfonyl)benzenesulfonamide]
